Source: patent US5885987A, “Phenylene derivatives” (Kowa Co., Ltd., priority 1996, dated 1999)
Like-named read-outs stand apart in the source and are kept apart here.

Columns and labels:
[1] = molecular target: T1, isolated guinea pig ileum (histamine) (Cavia porcellus, UniProt P31389); assay: Antihistaminic action (in vitro), inhibition of histamine-induced contraction of isolated ileum; format: cell-based; conditions: for inhibition at 10 µM: 10^-5 M, 30 minutes incubation, 37° C., read-out: Antihistaminic (%), contraction inhibition rate; for pD'2 (antihistaminic action): isolated guinea pig ileum, histamine, 30 min
T1 construct: An isolated guinea pig ileum was cut into about 2 cm lengths; from tissue; host or cells: isolated guinea pig ileum
T1 sequence (P31389 whole entry): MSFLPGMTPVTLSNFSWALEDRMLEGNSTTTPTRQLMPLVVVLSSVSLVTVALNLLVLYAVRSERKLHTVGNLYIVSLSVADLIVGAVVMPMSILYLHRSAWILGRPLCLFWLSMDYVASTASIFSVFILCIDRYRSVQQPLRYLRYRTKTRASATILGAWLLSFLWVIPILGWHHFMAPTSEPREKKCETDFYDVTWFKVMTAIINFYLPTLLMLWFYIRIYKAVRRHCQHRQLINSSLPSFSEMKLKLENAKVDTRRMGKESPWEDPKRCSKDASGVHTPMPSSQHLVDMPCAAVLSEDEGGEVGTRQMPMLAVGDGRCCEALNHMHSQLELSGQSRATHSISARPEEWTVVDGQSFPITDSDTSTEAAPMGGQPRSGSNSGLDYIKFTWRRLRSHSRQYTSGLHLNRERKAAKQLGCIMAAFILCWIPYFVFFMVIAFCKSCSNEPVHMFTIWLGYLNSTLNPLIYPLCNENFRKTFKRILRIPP
Description: (§1) Antihistaminic Action and Anti-LTD4 Action (In vitro Tests)
(§2) An isolated guinea pig ileum was cut into about 2 cm lengths. Each ileum piece was suspended in a 20-ml container filled with the Krebs buffer. An isotonic contractive response by histamine or leukotriene D4 was recorded on a recorder. The Krebs buffer was controlled at 37° C., through which a mixed gas (95%O2 -5%CO2) was bubbled. First, histamine or leukotriene D4 was added to an organ bath to measure its dose-response. After the ileum piece was washed several times with the buffer, a test compound (will be identified by its example number; this will apply likewise hereinafter) of a predetermined specific concentration was added. Subsequent to incubation for 30 minutes, the dose-response of histamine or leukotriene D4 was measured again. Incidentally, in Table 7, the values (%) indicate contraction inhibition rate at 10^-5 M, while the values in parentheses show pD'2 values in the case of antihistaminic action and IC50 values in the case of anti-LTD4 action.

[2] = tested on: isolated guinea pig ileum (leukotriene D4); assay: Anti-LTD4 action (in vitro), inhibition of leukotriene D4-induced contraction of isolated ileum; format: cell-based; conditions: Cavia porcellus; for IC50: isolated guinea pig ileum, leukotriene D4; for inhibition at 10 µM: 0.5 h, 10^-5 M, 30 minutes incubation, 37° C., read-out: Anti-LTD4 action (%), contraction inhibition rate
Description: as §1, §2

H1 receptor = molecular target: T2, H1 receptor (Cavia porcellus, UniProt P31389); assay: H1 receptor binding inhibition test ([^3 H]mepyramin, guinea pig cerebromembranous protein); conditions: for inhibition at 10 µM: b: 10 μM; for inhibition at 10 µM / inhibition at 100 µM: read-out: H1 receptor (%), inhibition rate; for Kd: read-out: H1 receptor, dissociation constant KD; for inhibition at 100 µM: a: 100 μM
T2 construct: guinea pig cerebromembranous protein; from tissue; host or cells: guinea pig cerebral (brain) membranes
T2 sequence (P31389 whole entry): as above
Method in brief: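 [³H]Mepyramine binding to guinea pig brain membranes was stopped with ice-cold phosphate buffer and filtered, and bound radioactivity was measured by liquid scintillation. Nonspecific binding was defined with 10^-4 M R(-)dimethindene. IC50 came from concentration-response data and was converted to a dissociation constant by Cheng-Prusoff.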

LTD4 receptor = molecular target: T3, LTD4 receptor (Cavia porcellus, UniProt Q2NNR5); assay: LTD4 receptor binding inhibition test ([^3 H]leukotriene D4, guinea pig pulmomembranous protein); conditions: for Kd: read-out: LTD4 receptor, dissociation constant KD
T3 construct: guinea pig pulmomembranous protein; from tissue; host or cells: guinea pig lung membranes
T3 sequence (Q2NNR5 1-340): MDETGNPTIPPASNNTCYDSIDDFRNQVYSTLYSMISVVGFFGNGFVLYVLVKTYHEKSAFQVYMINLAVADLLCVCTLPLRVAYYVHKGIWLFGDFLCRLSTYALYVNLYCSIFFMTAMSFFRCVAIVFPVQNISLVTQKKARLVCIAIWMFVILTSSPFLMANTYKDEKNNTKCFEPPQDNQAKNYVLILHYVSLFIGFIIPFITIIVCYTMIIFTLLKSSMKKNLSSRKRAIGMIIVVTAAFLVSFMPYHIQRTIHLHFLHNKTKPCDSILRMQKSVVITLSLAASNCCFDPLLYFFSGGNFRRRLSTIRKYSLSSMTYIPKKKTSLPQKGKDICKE
Method in brief: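 Filtration binding with [3H]LTD4 on guinea pig lung membranes; reaction stopped with ice-cold Tris-HCl/NaCl buffer (10 mM/100 mM, pH 7.5), bound radioactivity by scintillation counting. Nonspecific binding defined with 2 μM leukotriene D4. IC50 from dose-response, converted to dissociation constant by Cheng-Prusoff.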

leukotriene D4 = assay: Anti-LTD4 action in vivo, Evans Blue transudation in back skin after intracutaneous leukotriene D4; parameters: species or system male Hartley guinea pig; conditions: Cavia porcellus, po, 1 h; orally 10 mg/kg, one hour before; leukotriene D4 0.5 μg/ml, 0.1 ml intracutaneously; read-out: Anti-LTD4 action (%), inhibition rate
Description: (§3) Antihistaminic Action and Anti-LTD4 Action (In vivo Tests)
(§4) After the hair on the back of a male Hartley guinea pig was cut off, a test compound was orally administered at 10 mg/kg. One hour later, 5% Evans Blue solution was intravenously administered at 1 ml/kg and immediately after that, a 0.3 μg/ml solution of histamine and a 0.5 μg/ml solution of leukotriene D4 were intracutaneously administered each in an amount of 0.1 ml to the back. Thirty minutes later, the guinea pig was sacrificed under exsanguination, the skin was cut off, and the transudated color was quantitated by extraction. To a control, 0.5% CMC (carboxylmethylcellulose) was orally administered and the subsequent procedures were repeated likewise. From the difference in the amount of the transudated color between the control and the group administered with the test compound, an inhibition rate was calculated.

histamine (H1) = assay: Antihistaminic (anti-H1) action in vivo, Evans Blue transudation in back skin after intracutaneous histamine; parameters: species or system male Hartley guinea pig; conditions: orally 10 mg/kg, one hour before; histamine 0.3 μg/ml, 0.1 ml intracutaneously
Description: as §3, §4

cortical edema = conditions: intravenous administration after occurrence of ischemia; cited from earlier work
[3] = b: 10 μM, read-out: LTD4 receptor (%), inhibition rate

inhibition at 10 µM [1] | pD'2 (antihistaminic action) [1] | IC50 [2] | Kd (LTD4 receptor) | inhibition at 100 µM (H1 receptor) | Compound | inhibition at 10 µM [2] | inhibition in vivo at 10 mg/kg (leukotriene D4) | further results
98% | 6.17 | 120 nM | 315 nM |  | CN(Cc1cccc(OCc2ccc3ccccc3n2)c1)c1ccc2c(c1)SCC(=O)N2C [96(b), 4-methyl-7-[N-methyl-N-(3-(2-quinolinylmethoxy)benzyl)amino]-3,4-dihydro-2H-1,4-benzothiazin-3-one] |  |  | inhibition at 10 µM (H1 receptor): 14%
 | 5.09 | 240 nM | 41.3 nM |  | O=C1CCCc2cc(OCc3cccc(OCc4ccc5ccccc5n4)c3)ccc21 [Example 89, 6-[3-(2-quinolinylmethoxy)benzyloxy]-1-tetralone] |  |  | inhibition at 10 µM (H1 receptor): 6%
100% | 6.42 | 440 nM |  |  | Cc1ccc(OCc2ccc(OCc3nc4ccccc4n3C)cc2)c2c1NC(=O)C2(C)C [Example 39, 4-[4-(N-methylbenzimidazol-2-yl-methoxy)benzyloxy)-3,3,7-trimethyl-2,3-hydro-1H-indol-2-one] | 98% |  | Kd (H1 receptor): 37400 nM; Ki (LTD4 receptor; read-out: LTD4 receptor, dissociation constant KD (converted)): 408 nM
65% | 5.25 | 130 nM | 9.7 nM | 46% | O=C1CSc2cc(OCc3cccc(OCc4ncc5ccccc5n4)c3)ccc2N1 [Example 33, 7[3-(2-quinazolinylmethoxyl)benzyloxy]-3,4-dihydro-2H-1,4-benzothiazin-3-one] | 100% | 40% | 
 |  |  | 200 nM | 32% | CC1(C)C(=O)Nc2c(OCc3ccc(OCc4ccc5ccccc5n4)cc3)cccc21 [Example 30, 3,3-Dimethyl-7-[4-(2-quinolinylmethoxy)benzyloxy]-2,3-dihydro-1H-indol-2-one] |  | 44% | Anti-H1 action (%), inhibition rate (histamine (H1)): 40%
100% | 5.35 | 1500 nM | 202 nM | 40% | CC1(C)C(=O)Nc2c(OCc3cccc(OCc4ccc5ccccc5n4)c3)cccc21 [Example 17, 3,3-Dimethyl-7-[3-(2-quinolinylmethoxy)benzyloxy]-2,3-dihydro-1H-indol-2-one] | 96% | 21% | Anti-H1 action (%), inhibition rate (histamine (H1)): 19%
 |  |  | 12.5 nM | 50% | O=C1CSc2cc(OCc3cccc(OCc4ccc5ccccc5n4)c3)ccc2N1 [Example 10, 7-[3-(2-Quinolinylmethoxy)benzyloxy]-3,4-dihydro-2H-1,4-benzothiazin-3-one] |  | 32% | Anti-H1 action (%), inhibition rate (histamine (H1)): 36%
16% |  | 1700 nM | 209 nM |  | O=C1CCc2ccc(OCc3ccc(OCc4ncc5ccccc5n4)cc3)cc2N1 [Example 35, 7-[4-(2-quinazolinylmethoxy)benzyloxy]-1,2,3,4-tetrahydroquinolin-2-one] | 87% | 11% | Kd (H1 receptor): 87900 nM
 |  |  |  | 36% | CC1(C)C(=O)Nc2cc(OCc3cccc(OCc4ccc5ccccc5n4)c3)ccc21 [Example 15] |  | 37% | Anti-H1 action (%), inhibition rate (histamine (H1)): 17%; inhibition at 10 µM (LTD4 receptor; [3]): 37%
 |  |  | 12600 nM | 29% | O=C1CS(=O)(=O)c2cc(OCc3cccc(OCc4nc5ccccc5s4)c3)ccc2N1 [Example 78, 7-[3-(2-Benzothiazolylmethoxy)benzyloxy]-3,4-dihydro-2H-1,4-benzothiazin-3-one 1,1-dioxide] |  | 32% | 
37% |  | 460 nM | 81.4 nM |  | O=C1CCc2cc(OCc3cccc(OCc4ccc5ccccc5n4)c3)ccc2N1 [Example 6] | 98% | 12% | inhibition at 10 µM (H1 receptor): 18%
 |  |  | 26 nM |  | O=C1NCCCc2cc(OCc3cccc(OCc4ccc5ccccc5n4)c3)ccc21 [Example 84, 7-[3-(2-quinolinylmethoxy)benzyloxy]-2,3,4,5-tetrahydro-1H-benz[c]azepin-1-one] |  |  | Kd (H1 receptor): 66400 nM
 |  |  |  | 37% | CC1(C)C(=O)Nc2ccc(OC(=O)c3cccc(OCc4ccc5ccccc5n4)c3)cc21 [Example 59, 3,3-Dimethyl-5-[3-(2-quinolinylmethoxy)benzoyloxy]-2,3-dihydro-1H-indol-2-one] |  |  | inhibition at 100 µM (LTD4 receptor; a: 100 μM, read-out: LTD4 receptor (%), inhibition rate): 53%
 |  |  |  |  | 7-[4-(2-quinolinylmethoxy)benzyloxy]-2,3,4,5-tetrahydro-tetrazolo-[5,1-a][2]benzazepin [Example 88] |  |  | Kd (H1 receptor; 0.5 nM [^3 H]mepyramin, pH 7.5, 37° C., 30 minutes, calculated from IC50 with Cheng-Prusoff formula): 31100 nM; LTD4 receptor (%), inhibition rate (LTD4 receptor; b: 10 μM): 30%
 |  |  |  |  | CCCc1c(OCC(O)COc2ccc3c(=O)cc(C(=O)O)oc3c2CCC)ccc(C(C)=O)c1O (stereo not drawn) [FPL55712] |  |  | increase and aggravation of cortical edema (cortical edema): significantly inhibited
 |  |  |  |  | CN(Cc1cccc(OCc2ccc3ccccc3n2)c1)c1ccc2c(c1)SCC(=O)N2 [96(a), 7-[N-methyl-N-{3-(2-quinolinylmethoxy)benzyl}amino]-3,4-dihydro-2H-1,4-benzothiazin-3-one] |  |  | inhibition at 10 µM (H1 receptor): 4%; inhibition at 10 µM (LTD4 receptor; [3]): 9%
